This passage reports TGI and GI50 results from PubChem BioAssay (NCI).

Experiment in all cases: NCI-60 cell line screen, 48 h
Assay [1] has as its system BT-549 breast.
For assay [2], the system named is HCT-116 colon.
For assay [3], the system named is HOP-62 NSCLC.
Assay [4] concerns LOX IMVI melanoma.
The subject of assay [5] is NCI-H460 lung.
In assay [6] the test system is NCI-H522 lung.
Assay [7] has as its system OVCAR-3 ovarian.
The test system of assay [8] is SF-268 CNS.
Assay [9] has as its system SK-MEL-5 melanoma.
In assay [10] the test system is MALME-3M melanoma.

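Five concentrations, 48 hours, 96-well plates. At the GI50, growth is halved. At the TGI there is no net growth.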

Regarding `C=C1C(=O)C2(C)OC2(C)C1C(=O)O` (configuration not stated), the TGI in [1], in assay [2], in [3], in assay [4], in assay [5] and in assay [6] was over 100 µM in each case. Also, the TGI in [7], in [8] and in assay [9] was over 100 µM each time.

Regarding `CCCCC(C(=O)CCC(=O)Nc1ccc(Cl)cc1)C(=O)C(C)C` (configuration not stated), the TGI in [2], in assay [3], in assay [4], in assay [10], in [5] and in [6] was over 100 µM in each case. The TGI in assay [7], in [8] and in assay [9] was over 100 µM each time.

In the case of `ClCCCCOC1CCCCO1` (configuration not stated), the TGI in assay [2], in [3], in assay [10], in assay [5], in assay [6] and in assay [7] was over 100 µM each time. The TGI in [8] and in assay [9] was over 100 µM throughout.

Consider `N#Cc1c(N)c(C#N)c2c(c1-c1ccc(Cl)cc1)COc1ccc(F)cc1-2`, for which the GI50 in assay [4] is 43.9 µM; in assay [5], 18.7 µM; in assay [6], 2.75 µM; in assay [7], 16.2 µM; in assay [9], 16.4 µM. In addition, the TGI in assay [4] is over 50 µM; in assay [5] it was over 50 µM; in assay [6] it was 14.5 µM; in assay [7] it was over 50 µM; in assay [9], over 50 µM.

In the case of `COc1c(C)c(O)c2c(c1C)OC(c1ccccc1)CC2=O` (configuration not stated), the TGI in assay [2] was over 100 µM; in assay [3], over 100 µM; in assay [4] it was over 100 µM; in [10] it was 83.1 µM; in assay [5], over 100 µM; in assay [6], over 100 µM. Moreover, the TGI in [7] and in [8] was over 100 µM each time.

In the case of `Nc1nc2ncn(CC(O)COC(=O)c3ccccc3)c2c(=O)[nH]1` (configuration not stated), the TGI in [2], in assay [3], in assay [4], in [10], in [5] and in [6] was over 100 µM throughout. Also, the TGI in assay [7], in [8] and in assay [9] was over 100 µM each time.

On to `COC(=O)/C(=N/NC(C)(C)C)C(C(=O)OC)C(=O)C(=O)Nc1nc2ccc([N+](=O)[O-])cc2s1` (configuration not stated), for which the TGI in assay [2], in [3], in [4], in assay [10], in assay [5] and in assay [6] was over 100 µM in each case. The TGI in assay [7], in [8] and in [9] was over 100 µM throughout.

Take `O=C(O)COc1ccc(C(=O)/C(SS/C(C(=O)c2ccc(OCC(=O)O)c(Cl)c2Cl)=C2\C=C(c3ccccc3Cl)SS2)=C2/C=C(c3ccccc3Cl)SS2)c(Cl)c1Cl`: the TGI in [2] was over 58.7 µM; in [3] it was over 100 µM; in assay [4], 28.5 µM; in assay [10], over 100 µM; in assay [5], 52 µM; in [6] it was 11.3 µM. Besides, the TGI in [7] is 53 µM; in [8] it was over 88.3 µM; in [9], 49 µM.

With `Cc1c(O)c(Br)c(C)c(O)c1Br` (tested in a mixture with another compound), the TGI in [1] is 9.7 µM; in assay [3], 40.3 µM; in [4], 3.44 µM; in [10], 3.55 µM; in [5], 16.1 µM; in assay [8], 8.45 µM. Moreover, the TGI in assay [9] is 11.4 µM.

In the case of `COC1=CC2CCN3Cc4cc5c(cc4C(C1O)C23)OCC5` (configuration not stated), the GI50 is 3.94 µM in [1]; 1.68 µM in assay [2]; 3.61 µM in assay [3]; 0.587 µM in assay [4]; 2.1 µM in assay [5]; 28 µM in assay [6]. Besides, the GI50 in [7] is 1.78 µM; in assay [8] it was 4.57 µM; in assay [9], 2.18 µM. Also, the TGI in assay [1] is over 47 µM; in assay [2] it was over 49.4 µM; in [3], over 61.4 µM; in [4] it was 3.18 µM; in assay [5], over 100 µM; in assay [6], over 100 µM. Also, the TGI is 5.62 µM in assay [7], over 100 µM in assay [8] and 8.89 µM in [9].

In the case of `COC(=O)C1(O)c2ccccc2N=C2C1CCN2C` (configuration not stated), the TGI in [2], in [3], in assay [4], in [10], in assay [5] and in assay [6] was over 100 µM throughout. Besides, the TGI in assay [8] and in assay [9] was over 100 µM in each case.

In the case of `O=C1N=C(Nc2nc(-c3csc(NC4=NC(=O)/C(=C\c5ccc(Cl)cc5)S4)n3)cs2)S/C1=C/c1ccc(Cl)cc1`, the GI50 was 3.29 µM in assay [3]; 8.34 µM in assay [4]; 7.86 µM in assay [5]; 24.7 µM in assay [6]; 10.5 µM in assay [7]; 8.29 µM in assay [8]. The GI50 in assay [9] was 3.83 µM. Besides, the TGI is 18 µM in [3]; over 50 µM in [4]; over 50 µM in assay [5]; over 50 µM in assay [6]; 37.3 µM in assay [7]; over 50 µM in [8]. Moreover, the TGI in assay [9] stood at 41 µM.

With `CCCCCCSc1nc(COC(=O)NC)c(COC(=O)NC)n1C`, the TGI in assay [1], in assay [2], in assay [3], in assay [4], in assay [5] and in assay [6] was over 100 µM in each case. Moreover, the TGI in [7], in assay [8] and in assay [9] was over 100 µM throughout.
